Measurements as given in patent publication US20220339143A1, “TAK-925 FOR USE IN TREATING NARCOLEPSY” (Takeda Pharmaceutical Company Limited, priority 2019, published 2022).
“Also recorded” adds a separate entry of the source. Like-named read-outs stand apart in the source and are kept apart here.

Experiments:
[1] = Single dose PK in patients with narcolepsy (Cohorts 5, 6 and 7), plasma; format: in vivo, human; conditions: for AUC(0-inf) / AUC(0-t) / Cmax / AUC / concentration at 9 h / Tmax / Vd / clearance / concentration at 1 h / concentration at 2 h / concentration at 4 h / concentration at 6 h: human, plasma; for AUC: read-out: AUC24
Experimental: (§1) This study investigates (i) the safety and tolerability of Compound A (methyl (2R,3S)-3-((methylsulfonyl)amino)-2-(((cis-4-phenylcyclohexyl)oxy)methyl)piperidine-1-carboxylate) when a single dose given as a 9 hour continuous IV infusion is administered to healthy adults, healthy elderly subjects and patients with narcolepsy type 1 (NT1); (ii) the pharmacokinetics of Compound A when a single dose given as a 9 hour continuous IV infusion is administered to healthy adults, healthy elderly subjects and patients with narcolepsy type 1; and (iii) the pharmacodynamics (PD) effects of Compound A, primarily by evaluation of the sleep latency on MWT when a single dose given as a 9 hour continuous IV infusion is administered to patients with narcolepsy type 1.
In Part 2, NT1 patients received a single dose of Compound A or placebo administered as a continuous IV infusion over a 9-hour period during the day. A 40-minute Maintenance of Wakefulness Test (MWT) was conducted 4 times during the continuous IV infusion to assess effects on wakefulness in soporific conditions at 2, 4, 6 and 8 hours from start of infusion. Three cohorts of patients were enrolled (n=14 total).
(§2) Pharmacokinetics: Concentrations of Compound A in plasma, and CSF, and pharmacokinetics parameters.
On average, the time to reach the plateau appeared to be approximately 4 hours after the start of infusion. […] After switching off the IV infusion, Compound A plasma concentrations declined rapidly and in a biphasic manner with a mean terminal disposition phase t1/2z ranging approximately from 3.5 to 4.1 hours across the doses.

[2] = Single dose PK in healthy elderly subjects (Cohort 3), plasma; format: in vivo, human
Experimental: as §1, §2

[3] = CSF PK in healthy subjects (Cohort 4); format: in vivo; conditions: human; for concentration at 6 h: cerebrospinal fluid, intravenous, 112 mg, Cohort 4
Experimental: as §2
Following a single 9-hour IV infusion of 112 mg to healthy adult subjects in Cohort 4, Compound A plasma concentration-time profile was consistent with that observed in Cohort 1. At 6 hours after the start of infusion, mean ratio CSF/plasma concentration of Compound A was estimated to be about 2.8%.

[4] = Cmpd A 5 mg, Mean, Cohort 5, 6, 7
[5] = Cmpd A 5 mg, Median, Cohort 5, 6, 7
[6] = Cmpd A 11.2 mg, Mean, Cohort 5, 6, 7
[7] = Cmpd A 11.2 mg, Median, Cohort 5, 6, 7
[8] = Cmpd A 44.8 mg, Mean, Cohort 5, 6, 7
[9] = Cmpd A 44.8 mg, Median, Cohort 5, 6, 7
[10] = intravenous, 5 mg, Cmpd A 5 mg, Geo Mean, Cohort 5, 6, 7
[11] = intravenous, 5 mg, Cmpd A 5 mg, Mean, Cohort 5, 6, 7
[12] = intravenous, 5 mg, Cmpd A 5 mg, Median, Cohort 5, 6, 7
[13] = intravenous, 11.2 mg, Cmpd A 11.2 mg, Geo Mean, Cohort 5, 6, 7
[14] = intravenous, 11.2 mg, Cmpd A 11.2 mg, Mean, Cohort 5, 6, 7
[15] = intravenous, 11.2 mg, Cmpd A 11.2 mg, Median, Cohort 5, 6, 7
[16] = intravenous, 44.8 mg, Cmpd A 44.8 mg, Geo Mean, Cohort 5, 6, 7
[17] = intravenous, 44.8 mg, Cmpd A 44.8 mg, Mean, Cohort 5, 6, 7
[18] = intravenous, 44.8 mg, Cmpd A 44.8 mg, Median, Cohort 5, 6, 7
[19] = iv, 5 mg, NT1, single 9 h IV infusion, read-out: Plasma concentration, Mean
[20] = iv, 5 mg, NT1, single 9 h IV infusion, read-out: Plasma concentration, Median
[21] = iv, 11.2 mg, NT1, single 9 h IV infusion, read-out: Plasma concentration, Mean
[22] = iv, 11.2 mg, NT1, single 9 h IV infusion, read-out: Plasma concentration, Median
[23] = iv, 44.8 mg, NT1, single 9 h IV infusion, read-out: Plasma concentration, Mean
[24] = iv, 44.8 mg, NT1, single 9 h IV infusion, read-out: Plasma concentration, Median

COC(=O)N1CCC[C@H](NS(C)(=O)=O)[C@@H]1CO[C@H]1CC[C@@H](c2ccccc2)CC1 [Compound A, methyl (2R,3S)-3-((methylsulfonyl)amino)-2-(((cis-4-phenylcyclohexyl)oxy)methyl)piperidine-1-carboxylate]
AUCinf D [1, 4]: 17.88 ng·h/mL/mg
CL [1, 4]: 57.05 L/h
Cmax D [1, 4]: 2.050 ng/mL/mg
t½z [1, 4]: 3.465 h
AUCinf D [1, 5]: 18.20 ng·h/mL/mg
Cmax D [1, 5]: 2.000 ng/mL/mg
Vz [1, 5]: 284.5 L
t½z [1, 5]: 3.380 h
AUCinf D [1, 6]: 17.95 ng·h/mL/mg
Cmax D [1, 6]: 1.963 ng/mL/mg
Vss [1, 6]: 114.1 L
Vz [1, 6]: 316.8 L
t½z [1, 6]: 3.923 h
AUCinf D [1, 7]: 18.05 ng·h/mL/mg
Cmax D [1, 7]: 1.990 ng/mL/mg
Vss [1, 7]: 113.5 L
Vz [1, 7]: 336.5 L
t½z [1, 7]: 4.020 h
AUCinf D [1, 8]: 21.45 ng·h/mL/mg
Cmax D [1, 8]: 2.195 ng/mL/mg
t½z [1, 8]: 4.130 h
AUCinf D [1, 9]: 20.80 ng·h/mL/mg
Cmax D [1, 9]: 2.170 ng/mL/mg
t½z [1, 9]: 3.885 h
systemic exposures and clearance in NT1 patients vs healthy adults ([1]; IV administration): consistent with those observed in healthy adults; also recorded: comparable with those observed in healthy adults
dose proportionality of mean plasma systemic exposure ([1]; doses of 5 to 44.8 mg, NT1 patients): increased approximately dose proportionally
AUC(0-inf) [1, 10]: 88.5 ng·h/mL
AUC(0-t) [1, 10]: 86.2 ng·h/mL
Cmax [1, 10]: 10.1 ng/mL
AUC [1, 10]: 88 ng·h/mL
concentration at 9 h ([1]; intravenous, 5 mg, Cmpd A 5 mg, Geo Mean, Cohort 5, 6, 7, read-out: Ceoi): 9.65 ng/mL
AUC(0-inf) [1, 11]: 89.3 ng·h/mL
AUC(0-t) [1, 11]: 87.2 ng·h/mL
Cmax [1, 11]: 10.2 ng/mL
Tmax [1, 11]: 8 h
AUC [1, 11]: 88.8 ng·h/mL
concentration at 9 h ([1]; intravenous, 5 mg, Cmpd A 5 mg, Mean, Cohort 5, 6, 7, read-out: Ceoi): 9.71 ng/mL
Vd ([1]; intravenous, 5 mg, Cmpd A 5 mg, Mean, Cohort 5, 6, 7, read-out: Vss): 112 L
Vd ([1]; intravenous, 5 mg, Cmpd A 5 mg, Mean, Cohort 5, 6, 7, read-out: Vz): 282 L
AUC(0-inf) [1, 12]: 91.1 ng·h/mL
AUC(0-t) [1, 12]: 89.2 ng·h/mL
Cmax [1, 12]: 9.99 ng/mL
Tmax [1, 12]: 9 h
AUC [1, 12]: 90.8 ng·h/mL
clearance ([1]; intravenous, 5 mg, Cmpd A 5 mg, Median, Cohort 5, 6, 7, read-out: CL (converted)): 915 mL/min
concentration at 9 h ([1]; intravenous, 5 mg, Cmpd A 5 mg, Median, Cohort 5, 6, 7, read-out: Ceoi): 9.99 ng/mL
Vd ([1]; intravenous, 5 mg, Cmpd A 5 mg, Median, Cohort 5, 6, 7, read-out: Vss): 110 L
AUC(0-inf) [1, 13]: 201 ng·h/mL
AUC(0-t) [1, 13]: 199 ng·h/mL
Cmax [1, 13]: 21.9 ng/mL
AUC [1, 13]: 199 ng·h/mL
concentration at 9 h ([1]; intravenous, 11.2 mg, Cmpd A 11.2 mg, Geo Mean, Cohort 5, 6, 7, read-out: Ceoi): 21.2 ng/mL
AUC(0-inf) [1, 14]: 201 ng·h/mL
AUC(0-t) [1, 14]: 199 ng·h/mL
Cmax [1, 14]: 22 ng/mL
Tmax [1, 14]: 7.75 h
AUC [1, 14]: 199 ng·h/mL
clearance ([1]; intravenous, 11.2 mg, Cmpd A 11.2 mg, Mean, Cohort 5, 6, 7, read-out: CL (converted)): 932 mL/min
concentration at 9 h ([1]; intravenous, 11.2 mg, Cmpd A 11.2 mg, Mean, Cohort 5, 6, 7, read-out: Ceoi): 21.2 ng/mL
AUC(0-inf) [1, 15]: 202 ng·h/mL
AUC(0-t) [1, 15]: 200 ng·h/mL
Cmax [1, 15]: 22.3 ng/mL
Tmax [1, 15]: 9 h
AUC [1, 15]: 200 ng·h/mL
clearance ([1]; intravenous, 11.2 mg, Cmpd A 11.2 mg, Median, Cohort 5, 6, 7, read-out: CL (converted)): 924 mL/min
concentration at 9 h ([1]; intravenous, 11.2 mg, Cmpd A 11.2 mg, Median, Cohort 5, 6, 7, read-out: Ceoi): 21.9 ng/mL
AUC(0-inf) [1, 16]: 925 ng·h/mL
AUC(0-t) [1, 16]: 911 ng·h/mL
Cmax [1, 16]: 96.5 ng/mL
AUC [1, 16]: 911 ng·h/mL
concentration at 9 h ([1]; intravenous, 44.8 mg, Cmpd A 44.8 mg, Geo Mean, Cohort 5, 6, 7, read-out: Ceoi): 94 ng/mL
AUC(0-inf) [1, 17]: 959 ng·h/mL
AUC(0-t) [1, 17]: 941 ng·h/mL
Cmax [1, 17]: 98.3 ng/mL
Tmax [1, 17]: 6.5 h
AUC [1, 17]: 941 ng·h/mL
clearance ([1]; intravenous, 44.8 mg, Cmpd A 44.8 mg, Mean, Cohort 5, 6, 7, read-out: CL (converted)): 836 mL/min
concentration at 9 h ([1]; intravenous, 44.8 mg, Cmpd A 44.8 mg, Mean, Cohort 5, 6, 7, read-out: Ceoi): 96.2 ng/mL
Vd ([1]; intravenous, 44.8 mg, Cmpd A 44.8 mg, Mean, Cohort 5, 6, 7, read-out: Vss): 117 L
Vd ([1]; intravenous, 44.8 mg, Cmpd A 44.8 mg, Mean, Cohort 5, 6, 7, read-out: Vz): 281 L
AUC(0-inf) [1, 18]: 930 ng·h/mL
AUC(0-t) [1, 18]: 919 ng·h/mL
Cmax [1, 18]: 97 ng/mL
Tmax [1, 18]: 6.5 h
AUC [1, 18]: 919 ng·h/mL
clearance ([1]; intravenous, 44.8 mg, Cmpd A 44.8 mg, Median, Cohort 5, 6, 7, read-out: CL (converted)): 809 mL/min
concentration at 9 h ([1]; intravenous, 44.8 mg, Cmpd A 44.8 mg, Median, Cohort 5, 6, 7, read-out: Ceoi): 95.2 ng/mL
Vd ([1]; intravenous, 44.8 mg, Cmpd A 44.8 mg, Median, Cohort 5, 6, 7, read-out: Vss): 116 L
Vd ([1]; intravenous, 44.8 mg, Cmpd A 44.8 mg, Median, Cohort 5, 6, 7, read-out: Vz): 282 L
concentration at 1 h [1, 19]: 6.38 ng/mL
concentration at 1 h [1, 20]: 6.25 ng/mL
concentration at 2 h [1, 19]: 8.75 ng/mL
concentration at 2 h [1, 20]: 9.15 ng/mL
concentration at 4 h [1, 19]: 10.1 ng/mL
concentration at 4 h [1, 20]: 9.62 ng/mL
concentration at 6 h [1, 19]: 7.91 ng/mL
concentration at 6 h [1, 20]: 7.97 ng/mL
concentration at 9 h ([1]; iv, 5 mg, 9 hr, NT1, single 9 h IV infusion, read-out: Plasma concentration, Mean): 9.64 ng/mL
concentration at 9 h ([1]; iv, 5 mg, 9 hr, NT1, single 9 h IV infusion, read-out: Plasma concentration, Median): 9.96 ng/mL
concentration at 1 h [1, 21]: 14.4 ng/mL
concentration at 1 h [1, 22]: 14.3 ng/mL
concentration at 2 h [1, 21]: 17.3 ng/mL
concentration at 2 h [1, 22]: 17.1 ng/mL
concentration at 4 h [1, 21]: 21.5 ng/mL
concentration at 4 h [1, 22]: 21.5 ng/mL
concentration at 6 h [1, 21]: 19.5 ng/mL
concentration at 6 h [1, 22]: 19.8 ng/mL
concentration at 9 h ([1]; iv, 11.2 mg, 9 hr, NT1, single 9 h IV infusion, read-out: Plasma concentration, Mean): 21.2 ng/mL
concentration at 9 h ([1]; iv, 11.2 mg, 9 hr, NT1, single 9 h IV infusion, read-out: Plasma concentration, Median): 21.9 ng/mL
concentration at 1 h [1, 23]: 61.5 ng/mL
concentration at 1 h [1, 24]: 56.5 ng/mL
concentration at 2 h [1, 23]: 74.1 ng/mL
concentration at 2 h [1, 24]: 76.3 ng/mL
concentration at 4 h [1, 23]: 96 ng/mL
concentration at 4 h [1, 24]: 92.9 ng/mL
concentration at 6 h [1, 23]: 90 ng/mL
concentration at 6 h [1, 24]: 88.3 ng/mL
concentration at 9 h ([1]; iv, 44.8 mg, 9 hr, NT1, single 9 h IV infusion, read-out: Plasma concentration, Mean): 96.2 ng/mL
concentration at 9 h ([1]; iv, 44.8 mg, 9 hr, NT1, single 9 h IV infusion, read-out: Plasma concentration, Median): 95.2 ng/mL
clearance ([1]; iv, IV administration, NT1 patients, read-out: mean estimates of plasma clearance): 833 to 950 mL/min
time to reach the plateau of plasma concentration after the start of infusion ([1]; single 9 h IV infusion, 5 to 44.8 mg, NT1 patients): approximately 4 hours
reduction in clearance compared to younger healthy subjects [2]: 20%
Kp at 6 h ([3]; CSF, 112 mg single 9-hour IV infusion, 6 hours after the start of infusion, healthy adults Cohort 4, read-out: mean ratio CSF/plasma concentration): ~0.028
concentration at 6 h ([3]; Mean): 6.73 ng/mL
concentration at 6 h ([3]; Median): 6.63 ng/mL
